In patent publication US6914045B2, “Glycopeptide antibiotics” (Wyeth Holdings Corporation, priority 2001, dated 2005):
≈ marks a conversion by molar mass, not a printed value.

Tests used:
[1] = anatomic pathology (histopathology of heart and kidney) in mice; assay type: in vivo; settings: CD-1 mice, 20 mg/kg intravenously daily for 9 days, necropsy day 10, microscopic histopathology
Description: Samples of tissues from necropsied mice were formalin-fixed, paraffin-embedded, sectioned, stained with hematoxylin and eosin, and examined microscopically. Histopathologic findings were recorded. These findings were subjectively graded on a scale corresponding to slight, mild, moderate, marked and severe as compared to untreated controls.

Escherichia coli = assay: in vitro antibacterial evaluation, MIC by broth dilution; assay type: cell-based; settings: 18 hours at 35° C.
How it was run: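 MIC is the lowest antibiotic concentration (tested 64-0.06 μg/mL) preventing growth of a 5×10^5 CFU/mL inoculum. Determined by broth dilution in Mueller-Hinton II medium following NCCLS standard M7-A2.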

Enterococcus sp. = assay: as above; assay type: cell-based; settings: broth dilution, 18 hours at 35° C.
How it was run: (§1)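 Step 1: dilute antibiotic across 64-0.06 μg/mL in Muller-Hinton II […]. Step 2: inoculate at 5×10^5 CFU/mL.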

Staphylococcus sp. = assay: as above; assay type: cell-based; settings: broth dilution, 18 hours at 35° C.
How it was run: as §1

Streptococcus sp. = assay: as above; assay type: cell-based; settings: broth dilution, 18 hours at 35° C.
How it was run: as §1

- MIC Escherichia coli (ATCC 25922) (Escherichia coli): >128 µg/mL
- MIC Escherichia coli (GC 4559) (Escherichia coli): >128 µg/mL
- MIC Escherichia coli (GC 4560) (Escherichia coli): 128 µg/mL (≈ 91.9 µM)
- MIC Enterococcus avium (GC 4558) (Enterococcus sp.): >128 µg/mL
- MIC Enterococcus faecalis (ATCC 29212) (Enterococcus sp.): >128 µg/mL
- MIC Enterococcus faecalis (GC 2242) (Enterococcus sp.): >128 µg/mL
- MIC Enterococcus faecalis (GC 2691) (Enterococcus sp.): >128 µg/mL
- MIC Enterococcus faecalis (GC 3059) (Enterococcus sp.): >128 µg/mL
- MIC Enterococcus faecalis (GC 4552) (Enterococcus sp.): >128 µg/mL
- MIC Enterococcus faecalis (GC 4553) (Enterococcus sp.): >128 µg/mL
- MIC Enterococcus faecalis (GC 4554) (Enterococcus sp.): >128 µg/mL
- MIC Enterococcus faecalis (GC 6189) (Enterococcus sp.): >128 µg/mL
- MIC Enterococcus faecium (GC 2243) (Enterococcus sp.): >128 µg/mL
- MIC Enterococcus faecium (GC 4556) (Enterococcus sp.): >128 µg/mL
- MIC Enterococcus faecium (GC 4557) (Enterococcus sp.): >128 µg/mL
- MIC Staphylococcus aureus (ATCC 29213) (Staphylococcus sp.; strain ATCC 29213): >128 µg/mL
- MIC Staphylococcus aureus (GC 1131) (Staphylococcus sp.; strain GC 1131): >128 µg/mL
- MIC Staphylococcus aureus (GC 3051) (Staphylococcus sp.; strain GC 3051): >128 µg/mL
- MIC Staphylococcus aureus (GC 3053) (Staphylococcus sp.; strain GC 3053): >128 µg/mL
- MIC Staphylococcus aureus (GC 4541) (Staphylococcus sp.; strain GC 4541): >128 µg/mL
- MIC Staphylococcus aureus (GC 4542) (Staphylococcus sp.; strain GC 4542): >128 µg/mL
- MIC Staphylococcus aureus-SMITH (GC 4543) (Staphylococcus sp.; strain GC 4543): >128 µg/mL
- MIC Staphylococcus aureus (GC 4544) (Staphylococcus sp.; strain GC 4544): >128 µg/mL
- MIC Staphylococcus aureus (GC 4545) (Staphylococcus sp.; strain GC 4545): >128 µg/mL
- MIC Coagulase Negative Staphylococcus (GC 4547) (Staphylococcus sp.; strain GC 4547): >128 µg/mL
- MIC Coagulase Negative Staphylococcus (GC 4548) (Staphylococcus sp.; strain GC 4548): >128 µg/mL
- MIC Coagulase Negative Staphylococcus (GC 4549) (Staphylococcus sp.; strain GC 4549): >128 µg/mL
- MIC Coagulase Negative Staphylococcus (GC 4551) (Staphylococcus sp.; strain GC 4551): >128 µg/mL
- MIC Coagulase Negative Staphylococcus (GC 6257) (Staphylococcus sp.; strain GC 6257): >128 µg/mL
- MIC Streptococcus agalactiae (GC 4564) (Streptococcus sp.): >128 µg/mL
- MIC Streptococcus pneumoniae (ATCC 6301) (Streptococcus sp.): >128 µg/mL
- MIC Streptococcus pneumoniae (GC 1894) (Streptococcus sp.): >128 µg/mL
- MIC Streptococcus pneumoniae (GC 4565) (Streptococcus sp.): >128 µg/mL
- MIC Streptococcus pyogenes (GC 4563) (Streptococcus sp.): >128 µg/mL
Structure (SMILES): CCCCCCCN1CC(C(O)C2NC(=O)C(C(O)C3CNC(=N)N3)NC(=O)C(Cc3ccc(OC4OC(CO)C(OC5OC(CO)C(O)C(O)C5O)C(O)C4O)cc3)NC(=O)C(C(C)c3ccccc3)NC(=O)CNC(=O)C(CO)NC2=O)N(C2OC(CO)C(O)C(O)C2O)C1=N (stereo not drawn) [Example 71, Cyclo[glycyl-β-methylphenylalanyl-O-(4-O-hexopyranosylhexopyranosyl)tyrosyl-3-(2-iminoimidazolidin-4-yl)seryl-3-[1-heptyl-3-hexopyranosyl-2-iminoimidazolidin-4-yl]serylseryl]]
- Anatomical Pathology (Day 10), Heart [1]: 0
- Anatomical Pathology (Day 10), Kidney [1]: 0
- MIC Staphylococcus haemolyticus (GC 4546) (Staphylococcus sp.; strain GC 4546): >128 µg/mL
